Assay results published in patent EP0367671B1, “Novel beta-D-phenylthioxylosides, their method of preparation and their use as pharmaceuticals” (FOURNIER INDUSTRIE ET SANTE, priority 1988, dated 1990).

What follows are compounds tested on venous thrombosis (assay: venous thrombosis protocol (venous stasis under hypercoagulation with activated factor X, Wessler technique; thrombus removed and weighed)). Conditions: Rattus norvegicus, po; 12.5 mg/kg p.o., suspension in PEG 400; thrombosis induced 4 hours after treatment; unfasted male Wistar rats.
Format: in vivo
Description: A venous stasis is produced under hypercoagulation according to the technique described by WESSLER et al. (J. Applied Physiol. 1959, p. 943-946). As in the technique described by J. HAUPMAN et al. (Thrombosis and Haemostasis 43 (2) 1980, p. 118), the hypercoagulant used is a solution of activated factor X (Xa) supplied by the company Flow Laboratories (71 Knat per 12.5 ml of physiological serum).
The study is performed on unfasted male Wistar rats weighing 250 to 280 g and divided up into groups of 10 animals each. The test products are administered orally as a suspension in PEG 400. A thrombosis is induced 4 hours after this treatment and the thrombus formed is removed and weighed.
The results obtained at a dose of 12.5 mg/kg p.o. have been collated in Table I. The results obtained with the known products of the above-mentioned prior art have also been collated in this Table.

Question: Which inhibition in vivo at 12.5 mg/kg does the source give for `N#Cc1cccc(C(O)c2ccccc2S[C@@H]2SC[C@@H](O)[C@H](O)[C@H]2O)c1` (stereo partly drawn) [Example 7, (2-(3-cyanophenylhydroxymethyl)phenyl)-1,5-dithio-β-D-xylopyranoside] here?
Answer: Its inhibition in vivo at 12.5 mg/kg is 54%.

Question: How did the inhibition in vivo at 12.5 mg/kg turn out when `N#Cc1ccc(C(O)c2cc(C(F)(F)F)ccc2S[C@@H]2SC[C@@H](O)[C@H](O)[C@H]2O)cc1` (stereo partly drawn) [Example 10, (2-(4-cyanophenylhydroxymethyl)-4-trifluoromethylphenyl)-1,5-dithio-β-D-xylopyranoside] was run?
Answer: The inhibition in vivo at 12.5 mg/kg was 61%.

Question: With `N#Cc1ccc(C(=O)c2cc(C(F)(F)F)ccc2S[C@@H]2SC[C@@H](O)[C@H](O)[C@H]2O)cc1` [Example 9, (2-(4-cyanobenzoyl)-4-trifluoromethylphenyl)-1,5-dithio-β-D-xylopyranoside] as the compound, how does the inhibition in vivo at 12.5 mg/kg read?
Answer: Its inhibition in vivo at 12.5 mg/kg is 56.5%.

Question: Which inhibition in vivo at 12.5 mg/kg does the source give for `O=C(c1ccccc1)c1ccccc1S[C@@H]1SC[C@@H](O)[C@H](O)[C@H]1O` [Example 3, (2-benzoylphenyl)-1,5-dithio-β-D-xylopyranoside] here?
Answer: Its inhibition in vivo at 12.5 mg/kg is 4%.

Question: How did the inhibition in vivo at 12.5 mg/kg turn out when `N#Cc1ccc(S[C@@H]2SC[C@@H](O)[C@H](O)[C@H]2O)c(C(=O)c2ccccc2)c1` [Example 1, (2-benzoyl-4-cyanophenyl)-1,5-dithio-β-D-xylopyranoside] was run?
Answer: Its inhibition in vivo at 12.5 mg/kg is 69%.

Question: How did the inhibition in vivo at 12.5 mg/kg turn out when `CC(=O)O[C@@H]1[C@@H](OC(C)=O)[C@H](Sc2ccc(C#N)cc2C(=O)c2ccccc2)SC[C@H]1OC(C)=O` [Example 1a, (2-benzoyl-4-cyanophenyl)-2,3,4-tri-O-acetyl-1,5-dithio-β-D-xylopyranoside] was run?
Answer: Its inhibition in vivo at 12.5 mg/kg is 43.8%.

Question: `N#Cc1ccc(S[C@@H]2SC[C@@H](O)[C@H](O)[C@H]2O)c(C(O)c2ccccc2)c1` (stereo partly drawn) [Example 2, (4-cyano-2-phenylhydroxymethylphenyl)-1,5-dithio-β-D-xylopyranoside] was tested. Which inhibition in vivo at 12.5 mg/kg did it give?
Answer: Its inhibition in vivo at 12.5 mg/kg is 61%.

Question: For `N#Cc1ccccc1C(=O)c1ccccc1S[C@@H]1SC[C@@H](O)[C@H](O)[C@H]1O` [Example 8, (2-(2-cyanobenzoyl)phenyl)-1,5-dithio-β-D-xylopyranoside], which inhibition in vivo at 12.5 mg/kg is on record?
Answer: Its inhibition in vivo at 12.5 mg/kg is 57%.

Question: `N#Cc1ccc(C(=O)c2ccccc2S[C@@H]2SC[C@@H](O)[C@H](O)[C@H]2O)cc1` [Example 4, (2-(4-cyanobenzoyl)phenyl)-1,5-dithio-β-D-xylopyranoside] was tested. Which inhibition in vivo at 12.5 mg/kg did it give?
Answer: The inhibition in vivo at 12.5 mg/kg was 88%.

Question: `N#Cc1ccc(C(O)c2ccccc2S[C@@H]2SC[C@@H](O)[C@H](O)[C@H]2O)cc1` (stereo partly drawn) [Example 5, (2-(4-cyanophenylhydroxymethyl)phenyl)-1,5-dithio-β-D-xylopyranoside] was tested. Which inhibition in vivo at 12.5 mg/kg did it give?
Answer: Its inhibition in vivo at 12.5 mg/kg is 62%.

Question: How did the inhibition in vivo at 12.5 mg/kg turn out when `N#Cc1cccc(C(=O)c2ccccc2S[C@@H]2SC[C@@H](O)[C@H](O)[C@H]2O)c1` [Example 6, (2-(3-cyanobenzoyl)phenyl)-1,5-dithio-β-D-xylopyranoside] was run?
Answer: The inhibition in vivo at 12.5 mg/kg was 59%.
